The source of these data is patent EP2488529B1, “Spirocyclic derivatives as histone deacetylase inhibitors” (DAC S.r.l., priority 2009, dated 2011).

For one test, the target named is HDAC. Put plainly: Assay of enzyme inhibition of HDAC (BIOMOL kit, fluorescence). The class given is biochemical. The settings on record: nuclear fraction of Hela cells; substrate 200 µM; 15 min at RT. The method, then:
The in-vitro activity of HDAC inhibitors was assayed using a BIOMOL Kit, according to the instructions from the manufacturer (Biomolecular Research Laborator). 15 µl of 30 x diluted nuclear fraction of Hela cells, was diluted to 50 µl with the assay buffer containing the HDAC inhibitor and the substrate (lysine with acetylated amino group on the side chain) at a concentration of 200 µM. The samples were incubated for 15 min at RT and then exposed to a developer (10 min at RT). In this last step a fluorophore was produced, whose fluorescence was measured using an excitation wavelength of 355 nm and an emission at 460 nm. The IC50 was calculated using GraphPad Software.

The next test relates to A549. Nature of the test: Cell growth, CellTiter-Glo Luminescent Cell Viability Assay (antiproliferative assay). Format: cell-based. The settings on record: Homo sapiens; A549 cells, incubated for 72 h. An excerpt:
(§1) CellTiter-Glo® Luminescent Cell Viability Assay (Promega) is a homogeneous method of determining the number of viable cells in culture based on quantitation of the present ATP, which indicates the presence of metabolically active cells. The homogeneous assay procedure involves addition of a single reagent (CellTiter-Glo® Reagent) directly to the cells, which leads to cell lysis and generation of a luminescent signal proportional to the amount of the ATP and the number of cells present in culture. The assay relies on the properties of a proprietary thermostable luciferase (Ultra-Glo® recombinant luciferase), which generates a luminescent signal. K562, A549, and HCT-116 cells, in exponential growth, were incubated for 72 h with different concentrations of the inhibitors. After 72 h, a volume of CellTiter-Glo® Reagent equal to the volume of cell culture medium was added. The content was mixed for 2 min to induce cell lysis. The luminescence was recorded after further 10 min at RT in order to obtain a stable luminescent signal.
(§2) The IC50 was calculated using GraphPad Software.
In general terms: ATP-based viability assays read luminescence as a measure of living cells.

The next test deals with K562. Described as above. The class given is cell-based. The settings on record: Homo sapiens; K562 cells, incubated for 72 h.
Excerpt: as §1, §2

Another test relates to HCT-116. The test is described as above. Format: cell-based. The settings on record: Homo sapiens; HCT-116 cells, incubated for 72 h; read-out: HCT116 IC50.
Excerpt: as §1, §2

As usually defined, the IC50 is the concentration that gives 50% inhibition.

As to `O=C(/C=C/c1ccc2c(c1)C(=O)CC1(CN(CCc3ccccc3)C1)O2)NO` [Example 32, (E)-3-[1'-(2-Phenyl-ethyl)-4-oxo-spiro(chromane-2,3'-azetidine)-6-yl]-N-hydroxy-acrylamide], the IC50 against HDAC is 100 to 1000 nM; in the test on A549, ≤ 1000 nM; with K562, ≤ 1000 nM; with HCT-116, ≤ 1000 nM.

Take `O=C(/C=C/c1ccc2c(c1)C(=O)CC1(CCCN(Cc3ccccc3)C1)O2)NO` (racemic) [Example 13, (±)-(E)-3-[1'-Benzyl-4-oxo-spiro(chromane-2,3'-piperidine)-6-yl]-N-hydroxy-acrylamide]: the IC50 is ≤ 100 nM at HDAC, ≤ 1000 nM with A549, ≤ 1000 nM in the test on K562 and ≤ 1000 nM with HCT-116.

Consider `CN1CCCC2(CC(=O)c3cc(/C=C/C(=O)NO)ccc3O2)C1` (racemic) [Example 14, (±)-(E)-3-[1'-Methyl-4-oxo-spiro(chromane-2,3'-piperidine)-6-yl]-N-hydroxy-acrylamide], for which the IC50 at HDAC is 100 to 1000 nM; in the test on A549, ≤ 1000 nM; in the test with K562, ≤ 1000 nM; in the test on HCT-116, ≤ 1000 nM.

For `CN1CC2(CC(=O)c3cc(/C=C/C(=O)NO)ccc3O2)C1` [Example 34, (E)-3-[1'-Methyl-4-oxo-spiro(chromane-2,3'-azetidine)-6-yl]-N-hydroxy-acrylamide], the IC50 at HDAC was 100 to 1000 nM; in the test on A549, ≤ 1000 nM; in the test with K562, ≤ 1000 nM; in the test on HCT-116, ≤ 1000 nM.

Turning to `O=C(/C=C/c1ccc2c(c1)C(=O)CC1(CCCN(C3CCCC3)C1)O2)NO` (racemic) [Example 50, (±)-(E)-3-[1'-Cyclopentyl-4-oxo-spiro(chromane-2,3'-piperidine)-6-yl]-N-hydroxy-acrylamide], the 50% inhibitory concentration (IC50) on HDAC is ≤ 100 nM; in the test with A549, ≤ 1000 nM; in the test with K562, ≤ 1000 nM; in the test with HCT-116 it was ≤ 1000 nM.

For the compound `CC(=O)N1CCCC2(CC(=O)c3cc(/C=C/C(=O)NO)ccc3O2)C1` (racemic) [Example 16, (±)-(E)-3-[1'-Acetyl-4-oxo-spiro(chromane-2,3'-piperidine)-6-yl]-N-hydroxy-acrylamide], the IC50 at HDAC is 100 to 1000 nM; with A549 it was ≥ 3000 nM; in the test with K562, ≥ 3000 nM; in the test with HCT-116 it was ≥ 3000 nM.

For the compound `CC(C)N1CCCC2(CC(=O)c3cc(/C=C/C(=O)NO)ccc3O2)C1` (racemic) [Example 49, (±)-(E)-3-[1'-Isopropyl-4-oxo-spiro(chromane-2,3'-piperidine)-6-yl]-N-hydroxy-acrylamide], the IC50 is 100 to 1000 nM on HDAC, ≤ 1000 nM in the test with A549, ≤ 1000 nM with K562 and ≤ 1000 nM in the test with HCT-116.

In the case of `O=C(/C=C/c1ccc2c(c1)C(=O)CC1(CN(Cc3ccc(F)cc3)C1)O2)NO` [Example 33, (E)-3-[1'-(4-Fluoro-benzyl)-4-oxo-spiro(chromane-2,3'-azetidine)-6-yl]-N-hydroxy-acrylamide], the IC50 against HDAC was 100 to 1000 nM; in the test on A549, ≤ 1000 nM; with K562, ≤ 1000 nM; in the test on HCT-116, ≤ 1000 nM.

In the case of `O=C(/C=C/c1ccc2c(c1)C(=O)CC1(CCN(Cc3ccc(F)cc3)C1)O2)NO` (racemic) [Example 11, (±)-(E)-3-[1'-(4-Fluoro-benzyl)-4-oxo-spiro(chromane-2,3'-pyrrolidine)-6-yl]-N-hydroxy-acrylamide], the IC50 against HDAC is 100 to 1000 nM; in the test with A549 it was ≤ 1000 nM; in the test on K562 it was ≤ 1000 nM; in the test with HCT-116, ≤ 1000 nM.

Regarding `O=C(/C=C/c1ccc2c(c1)C(=O)CC1(CCN(Cc3ccccc3)C1)O2)NO` (single isomer, unassigned; (-)) [Example 3, (-)-(E)-3-[1 '-Benzyl-4-oxo-spiro(chromane-2,3'-pyrrolidine)-6-yl]-N-hydroxy-acrylamide], the half-maximal inhibitory concentration (IC50) at HDAC was ≤ 100 nM; with A549 it was ≤ 1000 nM; in the test on K562, ≤ 1000 nM; in the test with HCT-116, ≤ 1000 nM.

Turning to `O=C(/C=C/c1ccc2c(c1)C(=O)NC1(CCCN(Cc3ccccc3)C1)O2)NO` (racemic) [Example 40, (±)-(E)-3-{1'-Benzyl-3,4-dihydro-4-oxo-spiro[2H-(1,3)-benzoxazine-2,3'-piperidin]-6-yl}-N-hydroxy-acrylamide], the IC50 is ≤ 100 nM on HDAC, ≤ 1000 nM in the test on A549, ≤ 1000 nM with K562 and ≤ 1000 nM in the test on HCT-116.

As for `CN1CCCC2(C1)NC(=O)c1cc(/C=C/C(=O)NO)ccc1O2` (racemic) [Example 41, (±)-(E)-3-{1'-Methyl-3,4-dihydro-4-oxo-spiro[2H-(1,3)-benzoxazine-2,3'-piperidin]-6-yl}-N-hydroxy-acrylamide], the half-maximal inhibitory concentration (IC50) against HDAC was 100 to 1000 nM; with A549, 1000 to 3000 nM; in the test with K562, ≤ 1000 nM; in the test on HCT-116 it was ≤ 1000 nM.

For the compound `O=C(/C=C/c1ccc2c(c1)C(=O)CC1(CCCN(Cc3ccccc3)C1)O2)NO` (single isomer, unassigned; (-)) [Example 17, (-)-(E)-3-[1'-Benzyl-4-oxo-spiro(chromane-2,3'-piperidine)-6-yl]-N-hydroxy-acrylamide], the IC50 was ≤ 100 nM against HDAC, 1000 to 3000 nM with A549, ≤ 1000 nM in the test with K562 and ≤ 1000 nM in the test with HCT-116.

Consider `O=C(/C=C/c1ccc2c(c1)C(=O)CC1(CCCN(Cc3ccccc3)CC1)O2)NO` (racemic) [Example 23, (±)-(E)-3-[1'-Benzyl-4-oxo-spiro(chromane-2,4'-azepane)-6-yl]-N-hydroxy-acrylamide], for which the IC50 was ≤ 100 nM at HDAC, ≤ 1000 nM in the test with A549, ≤ 1000 nM with K562 and ≤ 1000 nM in the test with HCT-116.

On to `CCOC(=O)N1CCCC2(CC(=O)c3cc(/C=C/C(=O)NO)ccc3O2)C1` (racemic) [Example 15, (±)-(E)-3-[1'-Ethyloxycarbonyl-4-oxo-spiro(chromane-2,3'-piperidine)-6-yl]-N-hydroxy-acrylamide], for which the IC50 against HDAC is 100 to 1000 nM; in the test with A549, 1000 to 3000 nM; in the test on K562 it was ≤ 1000 nM; in the test with HCT-116 it was ≤ 1000 nM.

Turning to `CCOC(=O)N1CCC2(CC(=O)c3cc(/C=C/C(=O)NO)ccc3O2)C1` (racemic) [Example 8, (±)-(E)-3-[1'-Ethyloxycarbonyl-4-oxo-spiro(chromane-2,3'-pyrrolidine)-6-yl]-N-hydroxy-acrylamide], the IC50 on HDAC was 100 to 1000 nM; in the test on A549, ≤ 1000 nM; with K562, ≤ 1000 nM; in the test on HCT-116, ≤ 1000 nM.

Regarding `O=C(/C=C/c1ccc2c(c1)C(=O)NC1(CCCNC1)O2)NO` (racemic) [Example 39, (±)-(E)-3-{3,4-Dihydro-4-oxo-spiro[2H-(1,3)-benzoxazine-2,3'-piperidin]-6-yl}-N-hydroxy-acrylamide], the IC50 at HDAC was 100 to 1000 nM; in the test with A549 it was ≥ 3000 nM; in the test with K562, 1000 to 3000 nM; with HCT-116, 1000 to 3000 nM.

As to `CC(=O)N1CCCC2(CC1)CC(=O)c1cc(/C=C/C(=O)NO)ccc1O2` (racemic) [Example 24, (±)-(E)-3-[1'-Acetyl-4-oxo-spiro(chromane-2,4'-azepane)-6-yl]-N-hydroxy-acrylamide], the half-maximal inhibitory concentration (IC50) against HDAC was 100 to 1000 nM; in the test on A549, ≥ 3000 nM; in the test with K562, ≥ 3000 nM; in the test with HCT-116 it was ≥ 3000 nM.
